Assay results: publication PMC13316043, “Structural basis of NSD2 degradation via targeted recruitment of SCF-FBXO22” (Nature Communications, 2026)

What was measured:
[1] = biological target: T1, *NSD2 PWWP1 ubiquitination by SCF^FBXO22 (Homo sapiens, UniProt O96028+Q8NEZ5); assay: Ubiquitination assay using purified components; type: biochemical; settings: for SCF^FBXO22-dependent ubiquitination of *NSD2 PWWP1: compound at 0.5 µM, fluorescent SDS-PAGE; for hook effect upon titration in ubiquitination assay: compound titration
T1 construct: fluorescently labeled NSD2-PWWP1 (*NSD2-PWWP1); the FIST domain of FBXO22 rather than full-length FBXO22 that is used in the ubiquitination; 6xHis (N, cleaved yes); GST (cleaved yes); made in house; host or cells: SKP1-FBXO22: Trichoplusia ni insect cells; NSD2 PWWP1 and NEDD8: E. coli BL21(DE3)-CodonPlus RIL
Protocol: Ubiquitination assays were performed by mixing 2 separate solutions. First, SKP1-FBXO22, fluorescently labeled NSD2-PWWP1 (*NSD2-PWWP1), and compounds, unless otherwise indicated, were pre-incubated for 15 min on ice. Second, UBA1, UBE2R2, UBE2D2 or UBE2L3 and ARIH1, NEDD8 ~ CUL1-RBX1, MgATP, and reaction buffer (20 mM HEPES pH 8, 200 mM NaCl, 0.5 mg/mL bovine serum albumin (BSA)) were combined on ice to generate a master mix. A standard volume of master mix was added to each reaction tube, and Ub was added to initiate the ubiquitination reaction containing 100µM Ub, 1µM SKP1-FBXO22, 0.5µM *NSD2 PWWP1, 0.5µM compound, 0.1µM UBA1, 1µM UBE2R2, 1µM UBE2D2 or 1µM UBE2L3, and 1µM ARIH1, 1µM NEDD8~CUL1-RBX1, and 5mM MgATP in reaction buffer. Ubiquitination assays comparing *NSD2 PWWP1 mutants were performed similarly, except that SKP1-FBXO22, *NSD2 PWWP1 mutants, and compounds were not incubated separately prior to the start of the reaction. The reactions proceeded at room temperature for 15 min until they were quenched by adding SDS Loading Buffer. The ubiquitinated *NSD2 PWWP1 was visualized by subjecting the reactions to SDS-PAGE and imaging using the Amersham Typhoon.

FBXO22 FIST domain = assay: Differential scanning fluorimetry (DSF); type: binding, human; settings: vs DMSO
Protocol: A total of 9.5 µL of the master mix containing FBXO22 FIST WT or variants, SYPRO Orange Dye (Invitrogen), and DSF buffer (20 mM Tris 7.5, 150 mM NaCl, and 1 mM TCEP) were added to a 384-well qPCR plate (Genesee Scientific). 0.5 µL of the compound in DMSO was added to achieve a final concentration of 15 µM of the protein and 15× SYPRO Orange. The DSF assay plate was covered and incubated on an orbital shaker at room temperature for 30 min. The DSF assay was performed using the ViiA 7 Real-Time PCR System (Applied Biosystems). The plate was heated from 25°C to 95°C with a rate of 0.033°C/second. The raw fluorescence value was analyzed using the Protein Thermal Shift Software (Applied Biosystems, v1.4) to obtain the Tm. The graph was generated using GraphPad Prism (v 10.4.1).

BACH1 = assay: Western blot of BACH1 in HEK293T cells; type: cell-based, human; settings: for BACH1 levels by immunoblot: 10 µM, 6 hrs
Protocol: HEK293T and U2OS were obtained from ATCC and cultured in high-glucose-containing Dulbecco’s Modified Eagle’s Medium (DMEM; Gibco; cat. #11995) supplemented with 10% fetal bovine serum (VWR) and 1% penicillin/streptomycin (Gibco). Cells were treated with either UNC10415667, UNC12149, UNC12567, hemin (Sigma; cat. #H9039), or DMSO control for the indicated times and analyzed by western blot using standard procedures. Briefly, cells were lysed on ice for 15 min in NETN lysis buffer (20 mM Tris pH 8.0, 100 mM NaCl, 0.5 mM EDTA, 0.5% NP40) supplemented with 10 µg/mL aprotinin, 10 µg/mL leupeptin, 10 µg/mL pepstatin A, 1 mM sodium orthovanadate, 1 mM sodium fluoride, and 1 mM AEBSF (4-[two aminoethyl] benzenesulfonyl fluoride). Cell lysates were centrifuged at 20,000×g in a benchtop microcentrifuge at 4 °C for 10 min. Protein concentration was determined by Bradford assay (Bio-Rad; cat. #5000006). Protein concentration was normalized using Laemmli buffer. Samples were heated for 5 min at 95°C in a dry water-bath. Samples were separated on TGX stain free gels (Bio-Rad) transferred to nitrocellulose membrane and blocked in 5% non-fat dry milk (Biorad; cat. #1706404) diluted in 1x TBS-T (137 mM NaCl, 2.7 mM KCl, 25 mM Tris pH 7.6, 1% Tween-20). Primary antibody incubations (Anti-NSD2 (Abcam; Cat# ab75359; Lot# 1093214-1; 1:1000 dilution), Anti-BACH1 (Fortis Life Sciences; Cat# A303-805A; Lot# 1; 1:1000 dilution), and Anti-GAPDH (Santa Cruz Biotechnology; Cat# sc-47724; Lot# C1023; 1:1000 dilution)) were performed overnight at 4 °C. Secondary antibodies (Peroxidase AffiniPure Goat Anti-Rabbit IgG (H + L) (Jackson Immuno; Cat# 111-035-003; 1:5000 dilution) and Peroxidase AffiniPure Goat Anti-Mouse IgG (H + L) (Jackson Immuno; Cat# 115-035-003; 1:5000 dilution)) were incubated for 1 h at room temperature. Blots were developed by chemiluminescence using Pierce ECL (Thermo Fisher Scientific; cat. #32106).

T1 sequence (O96028 222-286 limits assumed): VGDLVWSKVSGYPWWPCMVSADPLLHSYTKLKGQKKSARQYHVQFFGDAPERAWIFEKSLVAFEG
T1 sequence (Q8NEZ5 whole entry, the tested form may be a part): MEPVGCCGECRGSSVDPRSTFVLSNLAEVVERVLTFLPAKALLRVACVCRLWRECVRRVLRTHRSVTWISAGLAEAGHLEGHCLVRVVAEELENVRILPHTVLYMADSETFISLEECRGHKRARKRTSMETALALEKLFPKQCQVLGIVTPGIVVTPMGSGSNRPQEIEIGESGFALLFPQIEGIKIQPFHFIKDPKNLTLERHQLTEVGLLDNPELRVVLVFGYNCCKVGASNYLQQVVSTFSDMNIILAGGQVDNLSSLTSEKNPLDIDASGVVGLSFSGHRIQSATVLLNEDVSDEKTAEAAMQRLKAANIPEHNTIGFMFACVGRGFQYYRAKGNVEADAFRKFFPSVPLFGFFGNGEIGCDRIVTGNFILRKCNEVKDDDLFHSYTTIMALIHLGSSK

| Compound | SCF^FBXO22-dependent ubiquitination of *NSD2 PWWP1 [1] | change in melting temperature (Tm) of WT FBXO22 FIST (FBXO22 FIST domain) | BACH1 levels by immunoblot (BACH1) | hook effect upon titration in ubiquitination assay [1] | change in melting temperature (Tm) of FBXO22 FIST C326A (FBXO22 FIST domain; C326A variant) | BACH1 and NSD2 levels upon co-treatment with Hemin (BACH1; 10 µM UNC10415667 and 20 µM Hemin, 6 h) |
| --- | --- | --- | --- | --- | --- | --- |
| Cc1cc(C=O)ccc1C(=O)N1CCc2cc(NC(=O)c3ccc(CN(C(=O)c4ccc5c(c4)OCC(=O)N5)C4CC4)cc3)ccc2C1 [UNC12149] | significant in vitro NSD2 ubiquitination | – | – | – | – | – |
| O=C1COc2cc(C(=O)N(Cc3ccc(C(=O)Nc4ccc5c(c4)CCN(C(=O)CCCCC(O)S(=O)(=O)O)C5)cc3)C3CC3)ccc2N1 (centres unmarked) [UNC10088] | promotes ubiquitination | stabilize WT FBXO22 FIST | remained constant | observed hook effect | – | – |
| O=Cc1ccc(C(=O)N2CCc3cc(NC(=O)c4ccc(CN(C(=O)c5ccc6c(c5)OCC(=O)N6)C5CC5)cc4)ccc3C2)cc1 [UNC10415667] | to the same extent as UNC10088 | significant increase | unchanged | characteristic hook effect | negligible shift | both BACH1 and NSD2 were degraded |
